Assay results from US20110251238A1, “PPAR AGONIST COMPOSITIONS AND METHODS OF USE” (BIOPHARMED, priority 2008, published 2011).
Where two headings read alike, the source gives them in different places.

Legend:
SKMEL28 (human melanoma) = assay: Growth inhibition, MTT colorimetric assay, SKMEL-28; format: cell-based; conditions: melanoma, 3 days with drug, means of six values, unit inferred, read-out: IC50 SKMEL-28
Procedure: (§1) Compounds that met the criteria for activity on KB3 cells were further tested for drug growth inhibitory activity in 5 carcinoma, 6 glioma and 3 melanoma cell lines, shown in Table 4. A549 (human lung adenocarcinoma epithelial), BxPC3 (pancreatic cancer), LoVo (colon cancer), MCF-7 (epithelial breast cancer), PC3 (human prostate cancer), Hs683 (human glioma), T98G (glioblastoma), U373 (human glioblastoma-astrocytoma), U138 MG (human glioma), epithelial-like), SKMEL28 (human melanoma), B16-F10 (mouse melanoma) and RhTP (rhabdomyosarcoma) cell lines were cultured in presence of the drugs for 3 days. The cytotoxic activity is expressed as (IC50). Inhibition of cell proliferation measured by the MTT colorimetric assay. The values reported in Table 4 are means of six distinct values. The standard errors are <5% as compared to the mean values.

Host = assay: Growth inhibition, MTT colorimetric assay, Host; format: cell-based; conditions: 3 days with drug, means of six values, unit inferred, read-out: IC50 Host
Procedure: as §1

[1] = system: bloodstream forms of T. brucei and T. congolense; assay: Trypanocidal activity in vitro, Alamar Blue assay; format: cell-based, Trypanosoma brucei and T. congolense; conditions: 48 h total incubation
Source text: Trypanosoma brucei and T. congolense are the causative agents of sleeping sickness in humans and nagana in cattle, respectively. The protozoan parasites live extracellularlyin blood and tissue fluids of mammals and are transmitted by the bite of infected tsetse flies (Glossina spp.). Here the trypanocidal activity against bloodstream forms of T. brucei and T. congolense of bis-8-hydroxy quinoline N-substituted benzylamines derivatives was investigated in vitro, according to methods described in. Steverding et al. (2006) Kinetoplastid Biology and Disease, 5(3): 1-5; Hongmance et al., (2007) Antimicrob. Agents Chemother. 51:1105-1106; and Zhao et al., (2005) Bio-org. Med. Chem.; 13: 3921-3926. Cells were seeded into 96-well tissue culture plates in 200 μl medium containing various concentrations of analogues dissolved in H2O. The controls contained the respective solvent alone. […] After 24 h (trypanosomes) or 43 h (HL-60) incubation, 20 μl of the colorimetric viability indicator Alamar Blue® was added to each well. The cells were incubated for a further 24 h (trypanosomes) or 5 h (HL-60) so that the total incubation time was 48 h. Then, the plates were read on a Dynatech MR5000ELISA reader (Denkendorf, Germany),using a test wavelength of 550 nm and a reference wave length of 630 nm. Each test was set up in duplicate and repeated three times. For comparison, the general cytotoxicity of the compounds was assayed with human myeloid leukaemia HL-60 cells. The anti-trypanosomal activities and the general cytotoxicities of the new analogues were evaluated using the Alamar Blue® assay.

[2] = system: MCF-7 (epithelial breast cancer); assay: Growth inhibition, MTT colorimetric assay, MCF7; format: cell-based; conditions: carcinoma, 3 days with drug, means of six values, unit inferred, read-out: IC50 MCF7
Procedure: as §1, with “A549” for “Compounds that met the criteria for activity on KB3 cells were further tested for drug growth inhibitory activity in 5 carcinoma, 6 glioma and 3 melanoma cell lines, shown in Table 4. A549”, “values.” for “values. The standard errors are <5% as compared to the mean values.”

T98G (glioblastoma) = assay: cells; format: cell-based; conditions: glioma, 3 days with drug, means of six values, unit inferred, read-out: IC50 T98G
Procedure: as §1, with “A549” for “Compounds that met the criteria for activity on KB3 cells were further tested for drug growth inhibitory activity in 5 carcinoma, 6 glioma and 3 melanoma cell lines, shown in Table 4. A549”, “values.” for “values. The standard errors are <5% as compared to the mean values.”

RhTP (rhabdomyosarcoma) = assay: Growth inhibition, MTT colorimetric assay, RhTp; format: cell-based; conditions: 3 days with drug, means of six values, unit inferred, read-out: IC50 RhTp
Procedure: as §1

U138 MG (human glioma) = assay: Growth inhibition, MTT colorimetric assay, U138; format: cell-based; conditions: glioma, 3 days with drug, means of six values, unit inferred, read-out: IC50 U138
Procedure: as §1

[3] = system: KB3 (epitheloid lung cancer) cell lines; assay: Cell growth inhibition (cytotoxicity), MTS assay, KB3 cell line; format: cell-based; conditions: Table 3A, MTS assay, triplicate, read-out: KB3 IC50
Procedure: Cell growth inhibition was determined by the MTS assay; the number of viable cells were proportional to the extent of formazan production in the presence or absence of drugs. […]

[4] = system: PC3 (human prostate cancer); assay: Growth inhibition, MTT colorimetric assay, PC3; format: cell-based; conditions: carcinoma, 3 days with drug, means of six values, unit inferred, read-out: IC50 PC3
Procedure: as §1

LoVo (colon cancer) = assay: Growth inhibition, MTT colorimetric assay, LoVo; format: cell-based; conditions: carcinoma, 3 days with drug, means of six values, unit inferred, read-out: IC50 LoVo
Procedure: as §1, with “A549” for “Compounds that met the criteria for activity on KB3 cells were further tested for drug growth inhibitory activity in 5 carcinoma, 6 glioma and 3 melanoma cell lines, shown in Table 4. A549”, “values.” for “values. The standard errors are <5% as compared to the mean values.”

Hs683 (human glioma) = assay: Growth inhibition, MTT colorimetric assay, HS683; format: cell-based; conditions: glioma, 3 days with drug, means of six values, unit inferred, read-out: IC50 HS683
Procedure: as §1, with “A549” for “Compounds that met the criteria for activity on KB3 cells were further tested for drug growth inhibitory activity in 5 carcinoma, 6 glioma and 3 melanoma cell lines, shown in Table 4. A549”, “values.” for “values. The standard errors are <5% as compared to the mean values.”

KaKa = assay: Growth inhibition, MTT colorimetric assay, KaKa; format: cell-based; conditions: 3 days with drug, means of six values, unit inferred, read-out: IC50 KaKa
Procedure: as §1

[5] = system: A549 (human lung adenocarcinoma epithelial); assay: Growth inhibition, MTT colorimetric assay, A549; format: cell-based; conditions: carcinoma, 3 days with drug, means of six values, unit inferred, read-out: IC50 A549
Procedure: as §1, with “A549” for “Compounds that met the criteria for activity on KB3 cells were further tested for drug growth inhibitory activity in 5 carcinoma, 6 glioma and 3 melanoma cell lines, shown in Table 4. A549”, “values.” for “values. The standard errors are <5% as compared to the mean values.”

[6] = system: BxPC3 (pancreatic cancer); assay: Growth inhibition, MTT colorimetric assay, BxPC3; format: cell-based, human; conditions: carcinoma, 3 days with drug, means of six values, unit inferred, read-out: IC50 BxPC3
Procedure: Cells are cultured at 37° C. in Falcon culture dishes, incubated at 5% CO2 in a suitable culture medium available from Invitrogen Corp. Anti-proliferative activity is determined by an MTT assay (bromide of (3-[4,5-dimethylthiazolium-yl]diphenyltetrazolium)). According to one standard protocol, absorbance is measured at 570 nm (see Dumont et al. (2007) Neoplasia 9: 766-776.
as §1, with “A549” for “Compounds that met the criteria for activity on KB3 cells were further tested for drug growth inhibitory activity in 5 carcinoma, 6 glioma and 3 melanoma cell lines, shown in Table 4. A549”, “values.” for “values. The standard errors are <5% as compared to the mean values.”

GL19 = assay: Growth inhibition, MTT colorimetric assay, GL19; format: cell-based; conditions: 3 days with drug, means of six values, unit inferred, read-out: IC50 GL19
Procedure: as §1

B16-F10 (mouse melanoma) = assay: Growth inhibition, MTT colorimetric assay, B16F10; format: cell-based; conditions: melanoma, 3 days with drug, means of six values, unit inferred, read-out: IC50 B16F10
Procedure: as §1

[7] = system: U373 (human glioblastoma-astrocytoma); assay: Growth inhibition, MTT colorimetric assay, U373; format: cell-based; conditions: glioma, 3 days with drug, means of six values, unit inferred, read-out: IC50 U373
Procedure: as §1

Row | Compound | IC50 (SKMEL28 (human melanoma); Homo sapiens, SK-MEL-28, 72 h) [nM] | IC50 (Host; 72 h) [nM] | IC50 ([2]; Homo sapiens, MCF7, 72 h) [nM] | IC50 (T98G (glioblastoma); Homo sapiens, T98G, 72 h) [nM] | IC50 (RhTP (rhabdomyosarcoma); 72 h) [nM] | IC50 (U138 MG (human glioma); Homo sapiens, U138-MG, 72 h) [nM] | IC50 ([4]; Homo sapiens, 72 h) [nM] | IC50 (LoVo (colon cancer); Homo sapiens, LoVo, 72 h) [nM] | IC50 (Hs683 (human glioma); Homo sapiens, Hs 683, 72 h) [nM] | IC50 (KaKa; 72 h) [nM] | IC50 ([5]; Homo sapiens, A549, 72 h) [nM] | IC50 ([6]; Homo sapiens, BXPC-3, 72 h) [nM] | IC50 (GL19; GL19, 72 h) [nM] | IC50 (B16-F10 (mouse melanoma); Mus musculus, B16-F10, 72 h) [nM] | IC50 ([7]; Homo sapiens, U373 MG, 72 h) [nM] | also measured
1 | 5,5′-(3,5-bis(trifluorométhyl)benzylazanediyl)bis(méthylène)diquinoléin-8-ol [BPM18,201] | – | – | – | – | – | – | – | – | – | – | – | – | – | – | – | IC50 (SKMEL28 (human melanoma)): > 10000 nM; IC50 (Host): 146 nM; GI50 ([1]; 50% growth inhibition, read-out: GI50): 320 ± 10 nM; MIC ([1]; lowest concentration at which all cells were killed, read-out: MIC): 1 µM; IC50 [2]: 38 nM; IC50 (T98G (glioblastoma)): 72 nM; IC50 (RhTP (rhabdomyosarcoma)): 47 nM; IC50 (U138 MG (human glioma)): 46 nM; IC50 [3]: 1000 nM; IC50 [4]: 71 nM; IC50 (LoVo (colon cancer)): 10 nM; IC50 (Hs683 (human glioma)): 181 nM; IC50 (KaKa): 98 nM; IC50 [5]: 9 nM; IC50 [6]: 79 nM; IC50 (GL19): 2140 nM; IC50 (B16-F10 (mouse melanoma)): 76 nM; IC50 [7]: 96 nM
2 | O=C(O)C1CCC(CN(Cc2ccc(O)c3ncccc23)Cc2ccc(O)c3ncccc23)CC1 (stereo not shown) [BPM19,225, 4-((bis((8-hydroxyquinolin-5-yl)methyl)amino)-methyl)cyclohexanecarboxylic acid] | > 10000 | > 10000 | 9460 | 9760 | > 10000 | > 10000 | 993 | 422 | 2860 | > 10000 | 661 | 4340 | 7600 | > 10000 | 3730 | –
3 | Oc1ccc(CN(Cc2cccc(I)c2)Cc2ccc(O)c3ncccc23)c2cccnc12 [BPM19,200, 5,5′-(3-iodobenzylazanediyl)bis(methylene)diquinolin-8-ol] | 9850 | 2980 | 374 | 446 | 788 | 430 | 394 | 393 | 479 | 7680 | 350 | 3810 | > 10000 | 888 | 5600 | IC50 ([3]; KB3): 1000 nM
